Laboratory results taken from patent publication US20250188410A1, “NICOTINAMIDE ADENINE DINUCLEOTIDE (NAD+) PRECURSORS, NAD PATHWAY SUBSTRATES COMPOSITIONS AND USES THEREOF” (Colossal Biosciences Inc., priority 2023, published 2025).
“And” between values parts separate entries of the source, which are not always exact repeats. Identical values can stand only once.

Key:
[1] = test system: bovine embryos; assay: Presumptive bESC colonies at day 25 by Alkaline Phosphatase staining (bESC derivation); assay type: cell-based; details: for number of presumptive bESC colonies (increase): IVF and PA groups, supplementation during the first seven days; for number of presumptive bESC colonies (increase) / # colonies per cm^2 / Average (# colonies per cm^2) / Fold vs Control (presumptive bESC colonies): day 25; for # colonies per cm^2 / Average (# colonies per cm^2) / Fold vs Control (presumptive bESC colonies) / Number of AP+ Colonies: IVF; for Number of AP+ Colonies: day 25, 12 well plate
Procedure: (§1) After identifying the NAD^+ precursor dosage, experiment 2 was performed. Embryos were cultured in in vitro culture medium (BO-IVC; IVF Biosciences) supplemented with NA or NMN for 7-14 days in air controlled atmosphere (5% CO2 and 5% O2) at 38.5° C. Embryos cultured with NAD^+ precursor were collected at the blastocyst stage (D7) and plated in co-culture with irradiated mouse embryonic fibroblast (MEF) and bovine ESCs medium ([…]) until day 25 for bovine ESCs Derivation: Timeline bESC Derivation: • D0-D7 Incubation of IVF-produced embryos in IVC supplemented with NAD^+ precursor for seven days. • D7 Plating of embryos for ESC derivation on medium […] on Cf1 MEF. Treatment with Y27632 for last 12 hours of culturing. • D14 Mechanically isolate the ICM and transfer to a new plate. […] NMN and Nicotinic Acid (NA, also known as Niacin) were used as the NAD^+ precursors in this experiment. On day 7 of supplementation, blastocysts were collected and plated on MEFs in a […] medium.

[2] = test system: bovine embryos; assay: Measurement of ICM and outgrowths for day 14 embryos before ICM isolation; assay type: cell-based; details: PA embryos
[3] = test system: bovine embryos; assay: Presumptive bESC colonies at day 25 by Alkaline Phosphatase staining (bESC derivation); assay type: cell-based; details: PA, replicate 1, 5 seed embryos; for # colonies per cm^2 / Average (# colonies per cm^2) / Fold vs Control (presumptive bESC colonies): day 25; for Number of AP+ Colonies: day 25, 12 well plate
[4] = test system: bovine embryos; assay: Attachment rate of embryos at day 11 of culture on MEFs in bEPSCM (Experiment 2); assay type: cell-based
[5] = test system: bovine embryos; assay: Measurement of ICM and outgrowths for day 14 embryos before ICM isolation; assay type: cell-based; details: IVF embryos
Procedure: as §1

[6] = test system: bovine embryos; assay: Early embryo development of bovine embryos in IVC medium supplemented with NAD+ precursor (Experiment 1); assay type: cell-based
Procedure: The NAD^+ precursors […] (NMN) or Nicotinic acid […] (NA) (SG; Sigma N7764) were supplemented into in vitro culture medium (BO-IVC; IVF Biosciences), and bovine embryos obtained by in vitro fertilization (IVF) or parthenogenetic activation (PA) were cultured for 7-14 days in air controlled atmosphere (5% CO2 and 5% O2) at 38.5° C. Embryo development was evaluated at day 3 (D3-cleavage rate), day 7 (D7−Blastocyst rate), and day 11 (D11−Hatching rate). In addition, the expansion of hatched blastocysts from day 11-13 was evaluated. Based on this testing (see in Experiment 1 below) suitable dosages of NAD^+ precursors were identified.
Different doses of NMN (125 to 1000 μM) were added to the IVC culture medium containing bovine embryos for up to 14 days. No effect of NAD^+ precursor presence was observed on the cleavage or blastocyst rates for all three replicates (see FIG. 1, FIG. 2A, FIG. 2B, and FIG. 3).

[7] = IVM or embryo culture media supplemented with NMN; cited from earlier work

SMILES | number of presumptive bESC colonies (increase) [1] | # colonies per cm^2 ([1]; replicate 1, 1 seed embryo) | Average (# colonies per cm^2) ([1]; replicate 1, 1 seed embryo) | Fold vs Control (presumptive bESC colonies) ([1]; replicate 1, 1 seed embryo) | Number of AP+ Colonies ([1]; replicate 1, 1 seed embryo) | # colonies per cm^2 ([1]; replicate 2, 5 seed embryos) | Average (# colonies per cm^2) ([1]; replicate 2, 5 seed embryos) | Fold vs Control (presumptive bESC colonies) ([1]; replicate 2, 5 seed embryos) | Number of AP+ Colonies ([1]; replicate 2, 5 seed embryos) | AVG Fold (ICM/outgrowth) [2] | AVG ICM [2] [μm] | AVG Outgrowth [2] [μm] | # colonies per cm^2 [3] | Average (# colonies per cm^2) [3] | Fold vs Control (presumptive bESC colonies) [3] | Number of AP+ Colonies [3] | % Attached ([4]; IVF embryos) [%] | Fold vs Control (attachment rate) ([4]; IVF embryos) | % Attached ([4]; PA embryos) [%] | Fold vs Control (attachment rate) ([4]; PA embryos) | also measured
O=C(O)c1cccnc1 [NA, nicotinic acid (pyridine-3-carboxylic acid), reference compound] | increased by three times | 82 and 72.29 and 8 | 54.1 | 2.958 | 287 and 253 and 28 | 33.43 | 33.43 | 3.25 | 117 | 0.1303 | 48.9 | 436.7 | 15.14 | 15.14 | 2.944 | 53 | 100 | 1.33 | 60 | 3 | AVG Fold (ICM/outgrowth) [5]: 0.09417; AVG ICM [5]: 76.27 μm; AVG Outgrowth [5]: 905.9 μm
NC(=O)c1ccc[n+]([C@@H]2O[C@H](COP(=O)([O-])O)[C@@H](O)[C@H]2O)c1 [NMN, nicotinamide mononucleotide] | increased by three times | 11.14 and 16.29 and 10.86 | 12.76 | 0.6979 | 39 and 57 and 38 | 16.29 | 16.29 | 1.583 | 57 | 0.1845 | 47.2 | 458.5 | 12 | 12 | 2.333 | 42 | 100 | 1.33 | 60 | 3 | cleavage rate ([6]; NMN 125 to 1000 μM in IVC culture medium, day 3, three replicates): No effect; blastocyst rate ([6]; NMN 125 to 1000 μM in IVC culture medium, day 7, three replicates): No effect; morphology of hatched blastocysts ([6]; supplementation in IVC, day 11 to day 13): beneficially impact; AVG Fold (ICM/outgrowth) [5]: 0.1124; AVG ICM [5]: 58.38 μm; AVG Outgrowth [5]: 645.2 μm; maturation or embryo development [7]: no effect
